Test results: publication PMC5428013, “Peptide-Au Clusters Induced Tumor Cells Apoptosis via Targeting Glutathione Peroxidase-1: The Molecular Dynamics Assisted Experimental Studies” (Scientific Reports, 2017)

What was measured:
Type in all cases: cell-based, human
caspase-3 = experiment: Cleaved caspase-3 level, western blotting; settings: serial Au doses (0, 100, 200, 400, 800 μM), 48 h
Procedure: (§1) The expression of GPx-1, caspase-3 and PARP from Au25P1_9 treated A549 cells were analyzed by western blotting. A549 cells were prior seeded on 6-well plate (at the density of 1 × 10^5 cells/well) for 24 h. Then the medium was discarded and fresh culture medium with Au25P1_9 at different doses was added to make cells exposed to final Au doses at 0, 100, 200, 400 and 800 μM, respectively. After another 48 h incubation, the cells were harvested and lysed by cell lysis buffer for Western and IP (containing 20 mM Tris-HCl, pH7.5, 150 mM NaCl, 1% Triton X-100, sodium pyrophosphate, β-glycerophosphate, EDTA, Na3VO4 and leupeptin), protease inhibitor cocktail tablet and 1 mM PMSF for 15 min on a shaker at 4 °C. The lysed cells were collected and centrifuged for 15 min at 12,000 g to get total protein of cells. The protein dose of each sample was prior quantified, and then loading buffer was added. After boiling for 5 min, the protein samples with equal amount were separated on 12% SDS polyacrylamide gel electrophoresis and then transferred onto the polyvinylidene difluoride (PVDF) membrane. Membrane was blocked by 5% nonfat dried milk prepared in tris(hydroxymethyl)amin omethane-NaCl-Tween 20 (TBST) at room temperature for 1 h, and then incubated with primary antibodies specific to β-actin, Caspase-3, PARP and GPx-1 at 4 °C overnight, respectively. […]

A549 cells [1] = experiment: Cellular location observed by CLSM; settings: 800 µM Au, 48 h, live A549 cells
Procedure: A549 cells were seeded on glass-bottom dishes (35 mm, MatTek Corporation) for confocal laser scanning microscopy (CLSM) observation. After 24 h, Au25P1_9 was added to culture medium and the final Au dose was 800 µM. The A549 cells were next exposed to Au25P1_9 for 48 h. Then the cells were washed three times with PBS and incubated with 10 µg/mL Hoechst 33342 at 37 °C under darkness for 10 min. Before observation, the culture medium was discarded and the cells were washed three times with PBS, supplemented with fresh culture medium. Finally, in A549 cells, the cell nucleus and Au25P1_9 were imaged under Nikon Ti-e microscope with excitation at wavelengths of 405 nm and 560 nm, respectively. To identify the accurate location of Au25P1_9 in cytoplasm of A549 cells, lysotracker green, a lysosome probe, was added in the medium after cells were incubated with Au25P1_9 for 48 h. The cells were then observed by CLSM with excitation at wavelengths of 488 nm and 560 nm, respectively.

GPx-1 = GPx-1 expression in A549 cells, western blotting; settings: Au dose 0, 100, 200, 400, 800 μM, 48 h
Procedure: as §1

A549 cells [2] = experiment: Intracellular ROS level by CLSM (CM-H2DCFDA); settings: Au25P1_9, final Au dose 800 µM, 48 h, 5 µM CM-H2DCFDA
Procedure: (§2) For CLSM observation, cells were prior cultured on glass-bottom dishes. Au25P1_9 was added to culture medium and the final Au dose was 800 µM. After 48 h. the cells were washed three times with PBS and incubated with 5 µM CM-H2DCFDA, at 37 °C under darkness for 30 min. Before CLSM observation, the culture medium was discarded and the cells were washed three times with PBS, supplemented with fresh culture medium. Finally, ROS in cells were highlighted by green fluorescence emission of CM-H2DCFDA, imaged under Nikon Ti-e microscope with excitation at wavelengths of 488 nm. For flow cytometry analysis, cells were prior seeded on 6-well plate (at the density of 1 × 10^5 cells/well) for 24 h. Then the medium was discarded and fresh culture medium containing Au25P1_9 with Au dose at 800 μM was added. For another 48 h incubation, the cells were washed thrice with PBS, and incubated with 5 µM CM-H2DCFDA at 37 °C under darkness for 30 min. After washing with PBS, the cells were collected and suspended in ice cold PBS. Fluorescence intensity of 20,000 events was recorded using an Accuri C6 flow cytometer and the level of intracellular ROS was analyzed by Cflow software.

A549 cells [3] = experiment: Intracellular ROS level by flow cytometry (CM-H2DCFDA); settings: 48 h
Procedure: as §2

## CCYGGPEEEEEVG [Au25P1_9, Au25 cluster coated by nine P1 peptides (…)]
caspase-3
  cleaved caspase-3 level: Au dose-dependent increase of cleaved caspases-3
A549 cells [1]
  cellular location: red emission can be observed in the cytoplasm of live A549 cells
GPx-1
  GPx-1 expression level: GPx-1 level remains stable
A549 cells [2]
  intracellular ROS by CLSM: obvious green fluorescence, a sign of increased intracellular ROS
A549 cells [3]; Au dose 800 µM, with CM-H2DCFDA, CM-H2DCFDA only control 20088, untreated 2674
  FL1-H fluorescence intensity (ROS): 43464
A549 cells [3]; Au dose of 800 μM, 5 µM CM-H2DCFDA, flow cytometry, 20,000 events
  intracellular ROS level relative to control: ~ 210%
